Measured values reported in patent US20240343732A1, “COMPOUNDS FOR DEGRADATION OF CYCLIN-DEPENDENT KINASE 7(CDK7)” (QURIENT CO., LTD., priority 2021, published 2024).

Assays:
[1] = target: T1, CDK1 (Homo sapiens, UniProt P06493); assay: Binding assay (FRET, LanthaScreen Eu, Tracer236) for CDK1; details: for IC50: read-out: CDK1 IC50 (enzyme binding assay)
T1 construct: His; purchased Invitrogen PR4768C
Experimental: (§1) Inhibition activity of compound to CDK7 kinase was tested in a binding assay which was applied to the FRET (fluorescence resonance energy transfer) principle from the europium (Eu) donor fluorophore to the acceptor fluorophore on the kinase tracer. Test compounds were made to 1.125 mM of compound solution, and then this compound solution 4-fold serial diluted in 8 steps using an automated liquid handler (JANUS™, PerkinElmer). 80 nL/well of each diluted compound solution was added into the 384-well plate (Greiner, Cat #784075) first and 7.5 ul/well of working solution [5 nM of CDK7/CycH/MNAT1 (Invitrogen, Cat #PR6749B), 4 nM of Biotin anti-His Tag Antibody (Invitrogen, Cat #PV6090), and LanthaScreen® Eu-Streptavidin (Invitrogen, Cat #PV6025)] was added. After mixing the solution well, the same volume with the working solution of Tracer236 (Invitrogen, Cat #PV5592) was added into each well in the plate. The plate was incubated for 60 minutes at room temperature and then all the fluorescence were measured using Envision leader (Perkin Elmer, USA) [Laser as excitation light; […] as the first and the second emission filter]. Data was analysed using XL Fit software.
(§2) All of the synthesized compounds were screened in the above-mentioned assay procedure. To identify the inhibition activity of compounds for other CDKs including CDK1 (Invitrogen, Cat #PR4768C), CDK2 (Invitrogen, Cat #PR4448B) and CDK5 (Invitrogen, Cat #PR8543B) were tested using the same protocol under reasonable concentration of Tracer236 and kinases for each assay. The formula for the assay buffer summarized in below table.

[2] = target: T2, CDK2 (Homo sapiens, UniProt P24941); assay: Binding assay (FRET, LanthaScreen Eu, Tracer236) for CDK2; details: for IC50: read-out: CDK2 IC50 (enzyme binding assay)
T2 construct: His; purchased Invitrogen PR4448B
Experimental: as §1, §2

[3] = target: T3, CDK5 (Homo sapiens, UniProt Q00535); assay: Binding assay (FRET, LanthaScreen Eu, Tracer236) for CDK5; details: for IC50: read-out: CDK5 IC50 (enzyme binding assay)
T3 construct: His; purchased Invitrogen PR8543B
T3 sequence (Q00535 whole entry): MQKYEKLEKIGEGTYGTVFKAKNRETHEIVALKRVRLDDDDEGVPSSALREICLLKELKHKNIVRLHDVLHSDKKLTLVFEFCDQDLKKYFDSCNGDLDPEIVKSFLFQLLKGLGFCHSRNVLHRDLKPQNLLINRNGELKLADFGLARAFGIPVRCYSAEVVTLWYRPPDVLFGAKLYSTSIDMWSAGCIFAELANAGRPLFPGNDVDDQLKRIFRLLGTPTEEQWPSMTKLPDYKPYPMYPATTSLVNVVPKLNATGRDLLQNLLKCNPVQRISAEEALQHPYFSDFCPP
T3 sequence (Q15078 99-307 partner limits assumed): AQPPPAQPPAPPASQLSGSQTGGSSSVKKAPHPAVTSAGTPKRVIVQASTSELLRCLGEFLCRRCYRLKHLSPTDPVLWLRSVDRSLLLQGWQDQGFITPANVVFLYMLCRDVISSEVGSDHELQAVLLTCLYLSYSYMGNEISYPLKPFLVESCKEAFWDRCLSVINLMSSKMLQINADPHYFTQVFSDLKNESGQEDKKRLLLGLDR
Experimental: as §1, §2

[4] = target: T4, CDK7/CycH/MNAT1 (Homo sapiens, UniProt P50613); assay: Binding assay (FRET, LanthaScreen Eu, Tracer236) for CDK7; details: read-out: CDK7 IC50 (enzyme binding assay)
T4 construct: His; purchased Invitrogen PR6749B
T4 sequence (P50613 whole entry): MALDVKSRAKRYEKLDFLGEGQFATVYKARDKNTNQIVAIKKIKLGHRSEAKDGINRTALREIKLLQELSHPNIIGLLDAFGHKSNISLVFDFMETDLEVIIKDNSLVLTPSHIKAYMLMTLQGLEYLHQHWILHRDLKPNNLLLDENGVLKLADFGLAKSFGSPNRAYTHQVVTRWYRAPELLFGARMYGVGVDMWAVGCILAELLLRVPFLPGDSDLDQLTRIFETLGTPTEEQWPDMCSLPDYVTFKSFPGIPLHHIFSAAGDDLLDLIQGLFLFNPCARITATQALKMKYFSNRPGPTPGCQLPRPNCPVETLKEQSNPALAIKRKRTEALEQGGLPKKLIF
T4 sequence (P51946 whole entry partner): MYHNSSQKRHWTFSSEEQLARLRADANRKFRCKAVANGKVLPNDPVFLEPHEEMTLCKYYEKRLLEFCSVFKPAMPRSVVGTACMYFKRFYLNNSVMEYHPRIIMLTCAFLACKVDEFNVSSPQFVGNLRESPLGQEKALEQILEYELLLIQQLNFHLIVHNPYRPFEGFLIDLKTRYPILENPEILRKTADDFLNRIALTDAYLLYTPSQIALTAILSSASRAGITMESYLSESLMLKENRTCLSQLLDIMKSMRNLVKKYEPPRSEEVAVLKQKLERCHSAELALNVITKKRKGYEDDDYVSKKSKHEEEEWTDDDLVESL
T4 sequence (P51948 whole entry partner): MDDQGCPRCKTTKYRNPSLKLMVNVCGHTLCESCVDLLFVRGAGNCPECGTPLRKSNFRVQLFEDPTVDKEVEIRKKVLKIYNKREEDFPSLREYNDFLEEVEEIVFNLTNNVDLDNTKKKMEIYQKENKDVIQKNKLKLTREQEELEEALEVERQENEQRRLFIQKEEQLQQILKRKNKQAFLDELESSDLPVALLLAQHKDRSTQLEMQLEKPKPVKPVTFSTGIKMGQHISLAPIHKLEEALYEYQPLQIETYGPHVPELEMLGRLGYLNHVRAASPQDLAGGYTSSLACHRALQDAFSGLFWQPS
Experimental: as §1, §2

[5] = target: T5, CDK7 protein (Homo sapiens, UniProt P50613); assay: Western blot assay for CDK7 protein degradation in A2780 cells; type: cell-based; details: 24 hours; for DC50: read-out: Compound concentration that caused 50% CDK7 protein degradation in A2780 cells (DC50);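 on all read-outs here: A is DC50 up to 100 nM B is 100 to 1000 nM C is above 1000 nM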
T5 construct: To verify endogenous CDK7 protein degradation; endogenous in cells; host or cells: A2780 (ECACC 93112519)
T5 sequence (P50613 whole entry): as the sequence (P50613 whole entry) above
Experimental: Human ovarian cancer cell line, A2780 (Cat #93112519) was obtained from ECACC. Cells were grown in RPMI-1640 media (Invitrogen, Cat #22400105) supplemented with 10% FBS (Hyclone, Cat #SH30084.03) and 1% penicillin/streptomycin (Hyclone, Cat #SV30010) and cultured at 37° C., 5% Co2 in a humidified chamber. All cell lines were routinely tested for mycoplasma.
To verify endogenous CDK7 protein degradation upon treatment of CDK7-specific degrader, the western blot assay was conducted a 24 hours' time period. 6×10^5 cells/well of A2780 cells were plated in 6-well plate. After 24 hours, the cells were treated with various concentrations of the compound corresponding range. DMSO solvent without compound served as a control and final DMSO concentration was not to exceed 0.1% of total volume. After 24 hours of incubation at 37° C., 5% Co2 incubator, cells were collected and lysed with 60 ul of lysis buffer. Collected lysates were incubated for 30 min on ice and collect supernatant through centrifugation at 12,000 rpm for 10 min at 4° C. The protein in lysates were quantified with BCA protein quantification kit (Pierce, Cat #23227) following manufacture's protocol. Cell lysates were diluted into 1 ug/ul of concentration with lysis buffer. 20 ug of protein was loaded to each well of 4˜12% Bis-Tris gel (Invitrogen, Cat #NP0336BOX) with MOPS running buffer (Invitrogen, Cat #NP0001). The proteins were transferred from gel to membrane and incubated with primary antibody as followed at 4° C. overnight; CDK7 (CST, Cat #2090S) and β-actin (Santa Cruz, Cat #sc-47778) 1:20,000. The signals were developed and acquired with ImageQuant™ LAS 4000.

T1 sequence (P06493 whole entry): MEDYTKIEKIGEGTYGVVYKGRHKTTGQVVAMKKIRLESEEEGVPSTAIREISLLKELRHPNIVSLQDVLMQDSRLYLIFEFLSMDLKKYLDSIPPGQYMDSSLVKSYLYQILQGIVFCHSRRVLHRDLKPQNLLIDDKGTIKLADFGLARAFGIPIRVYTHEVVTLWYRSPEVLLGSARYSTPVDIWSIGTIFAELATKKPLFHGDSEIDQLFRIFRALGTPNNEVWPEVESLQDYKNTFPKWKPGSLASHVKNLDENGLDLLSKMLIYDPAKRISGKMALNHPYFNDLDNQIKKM
T1 sequence (P14635 whole entry partner): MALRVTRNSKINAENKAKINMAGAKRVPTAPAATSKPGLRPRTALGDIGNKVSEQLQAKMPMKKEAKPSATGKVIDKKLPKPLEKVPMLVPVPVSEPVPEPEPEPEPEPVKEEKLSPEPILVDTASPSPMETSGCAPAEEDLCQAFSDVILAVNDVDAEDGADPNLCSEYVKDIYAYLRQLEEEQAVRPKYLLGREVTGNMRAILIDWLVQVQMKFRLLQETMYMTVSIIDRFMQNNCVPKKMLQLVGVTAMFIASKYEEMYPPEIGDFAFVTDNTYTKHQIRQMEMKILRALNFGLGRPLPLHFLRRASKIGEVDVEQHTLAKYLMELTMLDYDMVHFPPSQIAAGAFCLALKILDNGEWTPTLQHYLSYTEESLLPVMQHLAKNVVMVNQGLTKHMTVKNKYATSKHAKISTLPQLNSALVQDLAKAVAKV

Row | SMILES | CDK1/CDK7: Selectivity of CDK7 inhibition over CDK1 inhibition [1] | IC50 [1] [nM] | CDK2/CDK7: Selectivity of CDK7 inhibition over CDK2 inhibition [2] | IC50 [2] [nM] | CDK5/CDK7: Selectivity of CDK7 inhibition over CDK5 inhibition [3] | IC50 [3] [nM] | IC50 [4] [nM] | DC50 [5] [nM] | Compound concentration that caused 50% CDK7 protein degradation in A2780 cells (DC50, nM) [5]
1 | Cc1ncsc1-c1ccc(CNC(=O)[C@@H]2C[C@@H](O)CN2C(=O)[C@@H](NC(=O)CCOCCOCCNc2ccc3c(-c4ccccc4CNc4nc(O[C@@H]5CCCNC5)nc5c(C(C)C)cnn45)nccc3c2)C(C)(C)C)cc1 [Compound 15] | A (A indicates [fold] > 500) | > 1000 | A (A indicates [fold] > 500) | > 1000 | A (A indicates [fold] > 500) | > 1000 | ≤ 100 | ≤ 100 | –
2 | CC(C)c1cnn2c(NCc3ccccc3-c3nccc4cc(NCCOCCOCCNC(=O)CNc5ccc6c(c5)CN(C5CCC(=O)NC5=O)C6=O)ccc34)nc(O[C@@H]3CCCNC3)nc12 (stereo partly shown) [Compound 16] | A (A indicates [fold] > 500) | > 1000 | A (A indicates [fold] > 500) | > 1000 | A (A indicates [fold] > 500) | > 1000 | ≤ 100 | 100 to 1000 | B or A
3 | Cc1ncsc1-c1ccc([C@H](C)NC(=O)[C@@H]2C[C@@H](O)CN2C(=O)[C@@H](NC(=O)CCOCCOCCNc2ccc3c(-c4ccccc4CNc4nc(O[C@@H]5CCCNC5)nc5c(C(C)C)cnn45)nccc3c2)C(C)(C)C)cc1 [Compound 17] | A (A indicates [fold] > 500) | > 1000 | A (A indicates [fold] > 500) | > 1000 | A (A indicates [fold] > 500) | > 1000 | ≤ 100 | ≤ 100 | –
4 | Cc1ncsc1-c1ccc(CNC(=O)[C@@H]2C[C@@H](O)CN2C(=O)[C@@H](NC(=O)C2(F)CC2)C(C)(C)C)c(OCCOCCOCCOCCNc2ccc3c(-c4ccccc4CNc4nc(O[C@@H]5CCCNC5)nc5c(C(C)C)cnn45)nccc3c2)c1 [Compound 19] | A (A indicates [fold] > 500) | > 1000 | A (A indicates [fold] > 500) | > 1000 | A (A indicates [fold] > 500) | > 1000 | ≤ 100 | ≤ 100 | –
5 | Cc1ncsc1-c1ccc(CNC(=O)[C@@H]2C[C@@H](O)CN2C(=O)[C@@H](NC(=O)C2(F)CC2)C(C)(C)C)c(OCCOCCNc2ccc3c(-c4ccccc4CNc4nc(O[C@@H]5CCCNC5)nc5c(C(C)C)cnn45)nccc3c2)c1 [Compound 20] | A (A indicates [fold] > 500) | > 1000 | A (A indicates [fold] > 500) | > 1000 | A (A indicates [fold] > 500) | > 1000 | ≤ 100 | ≤ 100 | –
6 | Cc1ncsc1-c1ccc(CNC(=O)[C@@H]2C[C@@H](O)CN2C(=O)[C@@H](NC(=O)C2(F)CC2)C(C)(C)C)c(OCCOCCOCCOCCOCCNc2ccc3c(-c4ccccc4CNc4nc(O[C@@H]5CCCNC5)nc5c(C(C)C)cnn45)nccc3c2)c1 [Compound 21] | A (A indicates [fold] > 500) | > 1000 | A (A indicates [fold] > 500) | > 1000 | A (A indicates [fold] > 500) | > 1000 | ≤ 100 | ≤ 100 | –
